Tested on: sAPP secretion
Assay: Enhancement of sAPP secretion (immunoblot with 6E10 antibody, densitometry)
Format: cell-based, Human
Details: compound at 10 μM; FIG. 4
Procedure: Determination of the enhancement of sAPP secretion promoted by LQ-β series of compounds:
Human fibroblasts were obtained from the Coriell Cell Repositories (Camden, N.J.). Four AD cell lines (AG06848, AG04401, AG07377, AG06263) and four age-matched control cell lines (AG07141, AG06241, AG08044, AG04560) were grown to confluence in T75 cell culture flasks. Additional information about these cell lines can be found in the Catalog of Cell Lines from the National Institute of Aging. (National Institute of Aging, Catalog of Cell Lines (1994)). The culture medium was DMEM supplemented with 10% serum (FBS, Gibco). PC12 cells were obtained from the American Cell Culture Collection and grown to confluence in T75 flasks containing DMEM supplemented with 5% FBS (Gibco), 10% horse serum (Biofluids) and 1% of a mixture of penicillin (5,000 units/ml in G sodium) and streptomycin (5,000 μg/ml).
Cells in T-75 were seeded into 100 mm cell culture plates and allowed to grow for 2 days. […]
Conventional immunoblotting techniques were employed. […] Horseradish peroxidase bound signal was detected using an enhanced chemiluminescence followed by exposure to Hyperfilm ECL (Amersham). The band intensities were quantified by densitometric analyses using a BioRad GS-710 Scanning Densitometer and Multianalyst software (BioRad).

SMILES: O=C(O)CC(CP(=O)(O)O)C(=O)N1CCN(C(=O)OCCOc2ccccc2)CC1 (stereo not shown) [LQ-∃1, 4-(2-Carboxymethyl-3-phosphono-propionyl)-piperazine-1-carboxylic acid 2-phenoxy-ethyl ester]
- effect on sAPP secretion compared to vehicle (DMSO) alone: marked effect of enhancing secretion

From patent publication US6562783B2, “Phosphinylmethyl and phosphorylmethyl succinic and glutauric acid analogs as β-secretase inhibitors” (Neurologic, Inc., priority 2001, dated 2003)
